# pKi: −log10 of the molar value.
# Experiments:
# [1] = biological target: Amyloid-beta precursor protein (Homo sapiens, UniProt P05067); assay: Competitive radioligand binding to pathological aggregated beta amyloid in AD tissue
# [2] = biological target: Alpha-synuclein (Homo sapiens, UniProt P37840); assay: Alpha-Synuclein Tissue Homogenate Binding Assay
# Procedure: For displacement α-synuclein binding assay, compounds and control were solvated in dimethyl sulfoxide (DMSO) and transferred using focused acoustic energy by an Echo 655 liquid handling instrument (Beckman Coulter, Indianapolis, IN) into designated wells of uniquely bar coded 96-well v-bottom low binding polypropylene microplates (Thermo Scientific, 249946). Compound dose response curves were prepared in a 10-point, 3-fold fashion within columns 2 -11 of the microplate from high to low compound concentrations. The final assay concentration of dose response curves when starting at 1 mM ranged from 1.2 µM to 0.061 nM (0.12 % DMSO final assay concentration, 270 nL/well). Controls included no inhibitor (DMSO only) dispensed into wells A1 – D1, A12 – D12 for minimum efficacy signal and Compound 1000 at a final assay concentration of 12 µM into wells E1 – H1, E12 – H12 for maximum efficacy signal. Liquid-handling steps for dispensing insoluble fractions of PD brain homogenates and 25666 radioligand were performed using a Bravo automated liquid handling platform equipped with a 96LT disposable tip head (Agilent Technologies, Santa Clara, CA). […] A clear adhesive seal (TopSeal-A PLUS, PerkinElmer 6050185) was then applied to the top of each microplate and counted 1 minute/well on MicroBeta2 system (PerkinElmer, Model: 2450-0120).
# Amyloid-beta precursor protein, sequence (P05067 whole entry): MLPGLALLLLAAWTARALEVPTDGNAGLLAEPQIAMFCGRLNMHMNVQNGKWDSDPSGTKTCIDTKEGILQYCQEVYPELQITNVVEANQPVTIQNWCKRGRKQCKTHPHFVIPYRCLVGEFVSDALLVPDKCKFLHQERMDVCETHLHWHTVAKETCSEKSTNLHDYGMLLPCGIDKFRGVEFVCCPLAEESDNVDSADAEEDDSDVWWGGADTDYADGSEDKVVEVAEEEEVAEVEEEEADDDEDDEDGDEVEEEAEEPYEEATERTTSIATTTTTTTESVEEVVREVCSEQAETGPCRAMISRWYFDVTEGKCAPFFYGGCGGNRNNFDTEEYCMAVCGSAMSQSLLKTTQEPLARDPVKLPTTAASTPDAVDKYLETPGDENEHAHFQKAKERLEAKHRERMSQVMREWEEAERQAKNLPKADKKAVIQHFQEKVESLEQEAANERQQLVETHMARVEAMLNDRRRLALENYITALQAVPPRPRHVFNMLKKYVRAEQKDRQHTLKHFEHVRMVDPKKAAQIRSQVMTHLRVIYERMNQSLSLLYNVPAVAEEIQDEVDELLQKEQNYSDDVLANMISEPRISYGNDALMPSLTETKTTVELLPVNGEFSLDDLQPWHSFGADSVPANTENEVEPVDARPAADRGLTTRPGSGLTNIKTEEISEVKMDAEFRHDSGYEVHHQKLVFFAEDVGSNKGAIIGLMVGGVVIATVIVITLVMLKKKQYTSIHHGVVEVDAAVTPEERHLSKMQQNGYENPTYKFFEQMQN
Structure (SMILES),pKi [1],pKi [2]
"FCCOC[C@H]1CN(c2ncc(/C=C/c3ccc(-n4ccnc4)nc3)cn2)CCN1c1ncccn1 [WO2024186584, Example 3]",5.40,
"FCOC[C@H]1CN(c2ncc(/C=C/c3ccc(-n4ccnc4)nc3)cn2)CCN1c1ncccn1 [WO2024186584, Example 4]",7.00,8.92
"COC[C@H]1CN(c2ncc(C#Cc3ccc(-n4ccnc4)nc3)cn2)CCN1c1cc(F)ncn1 [WO2024186584, Example 12]",5.40,
"COC[C@H]1CN(c2cc(F)ccn2)CCN1c1ncc(/C=C/c2ccc(-n3ccnc3)nc2)cn1 [WO2024186584, Example 17]",,9.05
"COC[C@H]1CN(c2ncccn2)CCN1c1ncc(/C=C/c2ccc(-n3ccnc3)nc2)cn1 [WO2024186584, Example 28]",5.40,
"COC[C@H]1CN(c2ncc(/C=C/c3ccc(-n4ccnc4)nc3)cn2)CCN1c1ncc(OCCF)cn1 [WO2024186584, Example 35]",5.40,
"COC[C@H]1CN(c2ncc(/C=C/c3ccc(-n4ccnc4)nc3)cn2)CCN1c1ncc(OCC(O)CF)cn1 (stereo partly drawn) [WO2024186584, Example 39]",5.40,

# — BindingDB's records for patent WO2024186584 (8932 Hightail Drive, 2024)
